In US11274082B2, “Tead inhibitors and uses thereof” (Ikena Oncology, Inc., priority 2019, dated 2022):
Where two headings read alike, the source gives them in different places.

Legend:
[1] = test system: TEAD; assay: TEAD reporter assay (Hippo Pathway TEAD Reporter - MCF7 cell line, luciferase); type: cell-based; settings: Homo sapiens
Description: TEAD inhibition can be assayed using Hippo Pathway TEAD Reporter—MCF7 Cell Line (BPS Bioscience, Catalog #: 60618).
The TEAD Reporter—MCF7 cell line contains the firefly luciferase gene under the control of TEAD responsive elements stably integrated into the human breast cancer cell line, MCF7. Inside the cells, basal unphosphorylated YAP/TAZ remains in the nucleus and induces the constitutive expression of luciferase reporter. The cell line is validated for the inhibition of the expression of luciferase reporter by the activators of the Hippo pathway.
• 1) Harvest TEAD Reporter—MCF7 cells from culture in growth medium and seed cells at a density of 35,000 cells per well into white clear-bottom 96-well microplate in 45 μl of assay medium. • 2) Incubate cells at 37° C. in a CO2 incubator for overnight. • 3) Dilute the activators (H2O2 or okadaic acid) stock in assay medium. Add 5 μl of diluted activators to the wells. The final concentration of DMSO in assay medium is 0.1%. • 4) Add 5 μl of assay medium with same concentration of DMSO without activator to control wells. • 5) Add 50 μl of assay medium with DMSO to cell-free control wells (for determining background luminescence). • 6) Set up each treatment in at least triplicate. • 7) Incubate cells at 37° C. in a CO2 incubator for 5-6 hours. • 8) Perform luciferase assay using the ONE-Step™ Luciferase Assay System following the protocol provided: Add 100 μl of ONE-Step™ Luciferase reagent per well and rock at room temperature for ˜15 minutes. Measure luminescence using a luminometer. • 9) Data Analysis: Obtain the background-subtracted luminescence by subtracting the average background luminescence (cell-free control wells) from the luminescence reading of all wells.
(§1) Certain compounds were tested in TEAD reporter assay, and in H226 and H28. A: EC50<0.1 uM; B: 0.1 uM≤EC50≤0.5 uM; C: EC50>0.5 uM.

[2] = test system: H226; assay: Anti-proliferation assay in H226 cells; type: cell-based; settings: Homo sapiens
Method: as §1
Individual cell lines were grown in medium according to supplier instructions and seeded into 96-well plates at a density that ensured logarithmic growth over 72 hours. TEAD inhibitor compounds were administered to cells at a top concentration of 10 μm and subsequently a 10 point 3-fold serial dilution was conducted. After 72 hours, proliferation was quantified using Cell TITERGLO™ (Promega, Inc.) and compared to vehicle control. IC50 and EC50 values were generated using XLFit curve fitting software.

[3] = TEAD Reporter - MCF7 cells, read-out: TEAD Reporter Assay EC50
[4] = NCI-H226, H226 cells, read-out: H226 EC50
[5] = MCF7, read-out: TEAD Reporter Assay EC50 (uM)
[6] = NCI-H226, read-out: H226 EC50 (uM)

Row | SMILES | EC50 [1, 3] [µM] | EC50 [2, 4] [µM] | EC50 [1, 5] [µM] | EC50 [2, 6] [µM]
1 | CNS(=O)(=O)c1ccc(N[C@H]2CCc3ccccc32)c(-c2cn(C)cn2)c1 (single isomer, unassigned) [I-58] | > 0.5 | > 0.5 |  | 
2 | CNS(=O)(=O)c1ccc(N[C@@H]2CCc3ccccc32)c(-c2cn(C)cn2)c1 (single isomer, unassigned) [I-59] | < 0.1 | < 0.1 |  | 
3 | CNS(=O)(=O)c1ccc(NC(CO)c2ccccc2)c(-c2cn(C)cn2)c1 (stereo in doubt) [I-39, 4-[[(1S)-2-Hydroxy-1-phenyl-ethyl]amino]-N-methyl-3-(1-methylimidazol-4-yl)benzenesulfonamide] | > 0.5 | > 0.5 |  | 
4 | CNS(=O)(=O)c1ccc(Oc2cccc(C(F)(F)F)c2)c(B(O)O)c1 [I-18, [5-(methylsulfamoyl)-2-[3-(trifluoromethyl)phenoxy]phenyl]boronic acid] |  | > 0.5 |  | 
5 | CNS(=O)(=O)c1ccc(Oc2cccc(C(F)(F)F)c2)c(-c2cnc(C)[nH]2)c1 [I-19, N-Methyl-3-(2-methyl-1H-imidazol-5-yl)-4-[3-(trifluoromethyl)phenoxy]benzenesulfonamide] |  | > 0.5 |  | 
6 | CNS(=O)(=O)c1ccc(Oc2cccc(C(F)(F)F)c2)c(-c2cc(C)n[nH]2)c1 [I-20, N-methyl-3-(3-methyl-1H-pyrazol-5-yl)-4-[3-(trifluoromethyl)phenoxy]benzenesulfonamide] |  | > 0.5 |  | 
7 | CNS(=O)(=O)c1ccc(Nc2cccc(C(F)(F)F)c2)c(C(=O)N(C)OC)c1 [I-21, N-methoxy-N-methyl-5-(methylsulfamoyl)-2-[3-(trifluoromethyl)anilino]benzamide] |  | > 0.5 |  | 
8 | CNS(=O)(=O)c1ccc(Oc2cccc(C(F)(F)F)c2)c(-c2cn(C)cn2)c1 [I-22, Y-Methyl-3-(1-methyl-1H-imidazol-4-yl)-4-(3-(trifluoromethyl)phenoxy)benzenesulfonamide] | > 0.5 | > 0.5 |  | 
9 | CNS(=O)(=O)c1ccc(Nc2cccc(C(F)(F)F)c2)c(C(C)=O)c1 [I-23, 3-acetyl-N-methyl-4-[3-(trifluoromethyl)anilino]benzenesulfonamide] | > 0.5 | > 0.5 |  | 
10 | CNS(=O)(=O)c1ccc(Oc2cccc(C(F)(F)F)c2)c(C(N)=O)c1 [I-24] | > 0.5 | > 0.5 |  | 
11 | CNS(=O)(=O)c1ccc(Oc2cccc(C(F)(F)F)c2)c(-c2nc(C)c[nH]2)c1 [I-25, N-Methyl-3-(4-methyl-1H-imidazol-2-yl)-4-[3-(trifluoromethyl)phenoxy]benzenesulfonamide] | > 0.5 |  |  | 
12 | COC(=O)c1ccc(NCc2ccccc2)c(-c2nnn(C)n2)c1 [I-26, Methyl 4-(benzylamino)-3-(2-methyltetrazol-5-yl)benzoate] | > 0.5 | > 0.5 |  | 
13 | CNS(=O)(=O)c1ccc(N[C@@H](C)c2ccccc2)c(-c2cn(C)cn2)c1 [I-28, N-Methyl-3-(1-methylimidazol-4-yl)-4-[[(1S)-1-phenylethyl]amino]benzenesulfonamide] | > 0.5 | > 0.5 |  | 
14 | CNS(=O)(=O)c1ccc(NC(=O)c2ccccc2)c(-c2cn(C)cn2)c1 [I-29, N-[2-(1-Methylimidazol-4-yl)-4-(methylsulfamoyl)phenyl]benzamide] |  |  | > 0.5 | > 0.5
15 | CNS(=O)(=O)c1cnc(N[C@@H](C)c2ccccc2)c(-c2cn(C)cn2)c1 [I-34, N-Methyl-5-(1-methylimidazol-4-yl)-6-[[(1S)-1-phenylethyl]amino]pyridine-3-sulfonamide] | > 0.5 | > 0.5 |  | 
16 | CNS(=O)(=O)c1cnc(N[C@H](C)c2ccccc2)c(-c2cn(C)cn2)c1 [I-35, N-Methyl-5-(1-methylimidazol-4-yl)-6-[[(1R)-1-phenylethyl]amino]pyridine-3-sulfonamide] | 0.1 to 0.5 | 0.1 to 0.5 |  | 
17 | CNS(=O)(=O)c1ccc(N[C@H](CO)c2ccccc2)c(-c2cn(C)cn2)c1 [I-40, 4-[[(1S)-2-Hydroxy-1-phenyl-ethyl]amino]-N-methyl-3-(1-methylimidazol-4-yl)benzenesulfonamide] | > 0.5 | > 0.5 |  | 
18 | CCNS(=O)(=O)c1ccc(NCc2ccccc2)c(-c2cn(C)cn2)c1 [I-41, 4-(Benzylamino)-N-ethyl-3-(1-methylimidazol-4-yl)benzenesulfonamide] | 0.1 to 0.5 | < 0.1 |  | 
19 | Cn1cnc(-c2cc(S(N)(=O)=O)ccc2NCc2ccccc2)c1 [I-42, 4-(Benzylamino)-3-(1-methylimidazol-4-yl)benzenesulfonamide] | > 0.5 | 0.1 to 0.5 |  | 
20 | Cn1cnc(-c2cc(S(C)(=O)=O)ccc2NCc2ccccc2)c1 [I-44, N-Benzyl-2-(1-methylimidazol-4-yl)-4-methylsulfonyl-aniline] | > 0.5 | 0.1 to 0.5 |  | 
21 | CC[C@@H](Nc1ccc(S(=O)(=O)NC)cc1-c1cn(C)cn1)c1ccccc1 [I-45, N-Methyl-3-(1-methylimidazol-4-yl)-4-[[(1R)-1-phenylpropyl]amino]benzenesulfonamide] |  |  | 0.1 to 0.5 | 0.1 to 0.5
22 | CC(C)NS(=O)(=O)c1ccc(NCc2ccccc2)c(-c2cn(C)cn2)c1 [I-46, 4-(Benzylamino)-N-isopropyl-3-(1-methylimidazol-4-yl) benzenesulfonamide] |  |  | > 0.5 | 0.1 to 0.5
23 | CNS(=O)(=O)c1ccc(N[C@@H]2CCCc3ccccc32)c(-c2cn(C)cn2)c1 [I-47, N-Methyl-3-(1-methylimidazol-4-yl)-4-[[(1R)-tetralin-1-yl]amino]benzenesulfonamide] | 0.1 to 0.5 | 0.1 to 0.5 |  | 
24 | Cn1cnc(-c2cc(S(C)(=O)=O)ccc2Nc2cc(C(F)(F)F)ccn2)c1 [I-48, N-[2-(1-Methylimidazol-4-yl)-4-methylsulfonyl-phenyl]-4-(trifluoromethyl)pyridin-2-amine] | > 0.5 | 0.1 to 0.5 |  | 
25 | Cn1cnc(-c2cc(S(N)(=O)=O)ccc2Nc2cc(C(F)(F)F)ccn2)c1 [I-49, 3-(1-Methylimidazol-4-yl)-4-[[4-(trifluoromethyl)-2-pyridyl]amino]benzenesulfonamide] | > 0.5 | 0.1 to 0.5 |  | 
26 | CNS(=O)(=O)c1ccc(NCc2ccccc2)c(-c2cn(C(C)C)cn2)c1 [I-50, 4-(Benzylamino)-3-(1-isopropylimidazol-4-yl)-N-methyl-benzenesulfonamide] | 0.1 to 0.5 | 0.1 to 0.5 |  | 
27 | CNS(=O)(=O)c1ccc(NCc2ccccc2)c(-c2cn(C3CC3)cn2)c1 [I-51, 4-(Benzylamino)-3-(1-cyclopropylimidazol-4-yl)-N-methyl-benzenesulfonamide] | < 0.1 | < 0.1 |  | 
28 | CNS(=O)(=O)c1ccc(N[C@H]2CCCc3ccccc32)c(-c2cn(C)cn2)c1 [I-52, N-Methyl-3-(1-methylimidazol-4-yl)-4-[[(1S)-tetralin-1-yl]amino]benzenesulfonamide] | > 0.5 | > 0.5 |  | 
29 | CC[C@H](Nc1ccc(S(=O)(=O)NC)cc1-c1cn(C)cn1)c1ccccc1 [I-53, N-Methyl-3-(1-methylimidazol-4-yl)-4-[[(1S)-1-phenylpropyl]amino]benzenesulfonamide] | > 0.5 | > 0.5 |  | 
30 | CNS(=O)(=O)c1ccc(Nc2ccc(C(F)(F)F)cn2)c(-c2cn(C3CC3)cn2)c1 [I-87, 3-(1-Cyclopropylimidazol-4-yl)-N-methyl-4-[[5-(trifluoromethyl)-2-pyridyl]amino]benzenesulfonamide] |  | < 0.1 |  | 
